Patent publication US6815664B2, “Method for separation of particles” (Genoptix, Inc., priority 2001, dated 2004)

Assays:
U937 cells = assay: Escape velocity of treated and untreated leukemia cells; assay type: cell-based; conditions: PMA 5 ug/mL, 37° C., treated for 6 hours
Description: Separation By Refractive Index—Polystyrene, polymethylmethacrylate and silica particles of similar size (˜5 micrometer diameter, Bangs Labs) and refractive indexes of 1.59, 1.49 and 1.37, respectively, were sorted by moving optical gradient fields. Observed escape velocities for polystyrene, PMMA and silica were 44, 47 and 32 micrometers/second, respectively. Briefly, a particle is aligned in the fringe and the fringes are moved at increasing speed until the particle slips. […] It will be appreciated by those skilled in the art that the absolute value of the escape velocity will differ depending upon system conditions, e.g., laser power. The numerical results provided herein are meant to provide measured data for the system actually used, and are not to be considered a limitation on the values which might exist in a different system.
PMA was dissolved in ethanol at a concentration of 5 mg/mL. 3 mls of U937 cells grown in RPMI 1640 media with supplements were removed from the culture flask and 1 ml was placed into each of three eppendorf tubes. Cells from the first tube were pelleted for 4 minutes at 10,000 rpm and resuspended in 250 uL PBS/1% BSA buffer for escape velocity measurements. PMA was added to the remaining two tubes of U937 cells to a final concentration of 5 ug/mL. These tubes were vortexed and placed in a 37° C. water bath for either one hour or six hours. […]

K562 Cells = assay: Escape velocity of cells in a moving optical gradient field (1064 system, CYTOP coated coverslips); assay type: cell-based; conditions: K562 cells (chronic myelogenous leukemia, lymphoblast), 26 Hr. Taxol treatment; untreated K562 10.0 +/− 0.7
Description: Certain of the data reported herein were generated with the following setup. Optical gradient fields were generated using a Michelson interferometer and either a 150 mW, 812 nm laser (812 system) or a 2.5 W, 1064 nm laser (1064 system). The 812 system used a 100× (1.25 NA) oil immersion lens to focus the fringe pattern and to visualize the sample. The 1064 system used a 20× objective to focus the fringes and a 60× objective to visualize the sample. In general the sample cell was a coated microscope slide and/or coverslip that was sealed with Vaseline. Coverslip spacers controlled the height of the cell at approximately 150 micrometers
Separation By Refractive Index—Polystyrene, polymethylmethacrylate and silica particles of similar size (˜5 micrometer diameter, Bangs Labs) and refractive indexes of 1.59, 1.49 and 1.37, respectively, were sorted by moving optical gradient fields. Observed escape velocities for polystyrene, PMMA and silica were 44, 47 and 32 micrometers/second, respectively. […] The numerical results provided herein are meant to provide measured data for the system actually used, and are not to be considered a limitation on the values which might exist in a different system.
Escape velocities were measured using a gradient field generated by the 1064 system on CYTOP coated coverslips.

| Structure (SMILES) | escape velocity as compared to the untreated cells (U937 cells) | Escape Velocity (K562 Cells) |
| --- | --- | --- |
| CCCCCCCCCCCCCC(=O)O[C@@H]1[C@@H](C)[C@@]2(O)[C@@H](C=C(CO)C[C@]3(O)C(=O)C(C)=C[C@@H]23)[C@@H]2C(C)(C)[C@]12OC(C)=O [PMA] | significantly higher escape velocity |  |
| CC(=O)O[C@H]1C(=O)[C@@]2(C)[C@H]([C@H](OC(=O)c3ccccc3)[C@]3(O)C[C@H](OC(=O)[C@H](O)[C@@H](NC(=O)c4ccccc4)c4ccccc4)C(C)=C1C3(C)C)[C@]1(OC(C)=O)CO[C@@H]1C[C@@H]2O [Taxol] |  | 8.2 +/− 0.4 um/sec. |
